# Assay results published in ChEMBL document CHEMBL4673331 (J Med Chem, 2020).
# Active and inactive are the calls of the source. The rule behind the calls is not given here.
# What was measured:
# [1] = biological target: T1, Mucosa-associated lymphoid tissue lymphoma translocation protein 1 (Homo sapiens, UniProt Q9UDY8); experiment: Allosteric inhibition of human wild-type […] MALT1 (329 to 824 residues) protease activity using Ac-Leu-Arg-Ser-Arg Rh110-dPro as substrate preincubated for 60 mins followed by substrate addition and measured after 60 mins by fluorescence assay
# T1 sequence (Q9UDY8 whole entry): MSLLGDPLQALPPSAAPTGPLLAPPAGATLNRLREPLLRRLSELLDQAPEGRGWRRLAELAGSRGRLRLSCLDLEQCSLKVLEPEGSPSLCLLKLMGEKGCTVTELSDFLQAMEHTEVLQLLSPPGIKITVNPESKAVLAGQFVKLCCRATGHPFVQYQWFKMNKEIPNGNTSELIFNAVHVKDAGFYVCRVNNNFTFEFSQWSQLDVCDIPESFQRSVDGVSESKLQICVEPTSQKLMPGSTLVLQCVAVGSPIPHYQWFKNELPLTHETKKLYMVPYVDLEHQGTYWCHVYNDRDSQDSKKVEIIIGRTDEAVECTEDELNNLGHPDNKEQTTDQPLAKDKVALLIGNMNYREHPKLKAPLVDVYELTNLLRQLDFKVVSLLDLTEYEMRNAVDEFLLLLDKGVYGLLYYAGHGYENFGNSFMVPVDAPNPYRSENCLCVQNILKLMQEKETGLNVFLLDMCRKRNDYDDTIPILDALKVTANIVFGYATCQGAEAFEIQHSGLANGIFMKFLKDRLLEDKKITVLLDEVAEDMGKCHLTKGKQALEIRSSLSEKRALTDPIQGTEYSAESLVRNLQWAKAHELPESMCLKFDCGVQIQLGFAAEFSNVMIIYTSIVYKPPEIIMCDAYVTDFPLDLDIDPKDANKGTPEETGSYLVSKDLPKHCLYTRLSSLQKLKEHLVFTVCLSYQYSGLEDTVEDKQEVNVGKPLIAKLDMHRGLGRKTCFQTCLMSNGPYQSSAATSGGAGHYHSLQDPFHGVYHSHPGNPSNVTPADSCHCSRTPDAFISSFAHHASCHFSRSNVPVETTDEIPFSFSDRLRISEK
# [2] = Oral bioavailability in Balb/c mouse at 3 mg/kg administered as cassette dosing; format: ADME, organism-based; settings: in vivo
# [3] = biological target: T1, Mucosa-associated lymphoid tissue lymphoma translocation protein 1; experiment: Allosteric inhibition of MALT1 in human OCI-LY3 cells assessed as reduction in BCL10 cleavage measured after 24 hrs by ELISA; format: cell-based, OCILY3
# [4] = Inhibition of mixed lymphocyte reaction in human PBMC cells assessed as reduction in [3H]-thymidine incorporation measured after 5 days in presence of Il-7 by microbeta counting method; format: functional, cell-based
# [5] = Oral bioavailability in Sprague-Dawley rat at 3 mg/kg administered as cassette dosing; format: ADME, organism-based; settings: in vivo
# OCI-Ly3 [6] = experiment: Antiproliferation activity against human OCI-LY3 cells assessed as reduction in cell viability incubated for 14 days by resazurin dye-based fluorescence analysis; format: functional; settings: OCI-Ly3, 336 h
# Mus musculus [7] = experiment: Immunomodulatory activity in human TMD8 cells xenografted po dosed SCID mouse assessed as increase in levels of uncleaved BCL10 in tumor administered twice daily for 2 weeks; format: functional, organism-based; settings: dose mg/kg 10-100, time 2.0 weeks
# [8] = Protein binding in mouse plasma; format: ADME, cell-free; settings: read-out: PPB (converted)
# [9] = Toxicity in Balb/c mouse assessed as change in body weight at 10 to 100 mg/kg, po BID administered at 12 hrs interval immunized post 1 hr first treatment; format: organism-based; settings: in vivo, dose 10-100 mg/kg
# [10] = Apparent permeability across apical to basolateral side in human Caco-2 cells; format: ADME, cell-based
# BJAB [11] = experiment: Antiproliferative activity against human BJAB cells assessed as assessed as reduction in colony formation at 19.5 to 10000 nM incubated for 14 days by soft-agar assay; format: functional, cell-based; settings: dose 19.5-10000 nM, time 14.0 day
# [12] = Permeability of compound by PAMPA assay; format: ADME
# [13] = Solubility of the compound at pH 6.8; format: physicochemical; settings: buffer
# [14] = Intrinsic clearance in mouse liver microsome; format: ADME; settings: liver microsomes, read-out: CLH
# Mus musculus [15] = experiment: Anti-autoimmune disease activity in Balb/c mouse assessed as reduction in anti-DNP induced IgM producing B cells at 30 mg/kg, po administered twice at 12 hrs interval immunized post 1 hr first treatment measured after 8 days by ELISA relative to control; format: functional; design: scale not given: the % may be the effect or the level left; settings: time 8 day
# [16] = Tmax in human TMD8 cells xenografted SCID mouse at 100 mg/kg, po qd by UPLC-MS/MS analysis; format: ADME, organism-based; settings: in vivo
# Mus musculus [17] = experiment: Immunomodulatory activity in human TMD8 cells xenografted SCID mouse assessed as decrease in IL-10 production in tumor at 100 mg/kg, po; format: functional, organism-based
# [18] = biological target: T2, Mucosa-associated lymphoid tissue lymphoma translocation protein 1 (Homo sapiens) (UniProt Q9UDY8); experiment: Allosteric inhibition of MALT1 protease activity in human OCI-LY3 cells assessed as accumulation of uncleaved substrate […] incubated for 24 hrs by Western blot analysis; format: cell-based; settings: OCILY3, filed as negative allosteric modulator, dose 50-5000 nM
# T2 sequence (whole entry): T1 sequence (Q9UDY8 whole entry)
# [19] = Protein binding in rat plasma; format: ADME, cell-free; settings: read-out: PPB (converted)
# [20] = Clearance in Balb/c mouse at 1 mg/kg, iv administered as cassette dosing; format: ADME, organism-based; settings: in vivo
# TMD8 = experiment: Antitumor activity against human TMD8 cells xenografted in SCID mouse assessed as tumor stasis at 100 mg/kg, po BID administered for 2 weeks; format: functional, organism-based
# [21] = biological target: Baculoviral IAP repeat-containing protein 3/Mucosa-associated lymphoid tissue lymphoma translocation protein 1 (Homo sapiens, UniProt Q13489+Q9UDY8); experiment: Allosteric inhibition of MALT1-cIAP2 (unknown origin) fusion protein expressed in HEK293 cells assessed as reduction in NF-KappaB activation by luciferase reporter gene assay; format: cell-based
# Baculoviral IAP repeat-containing protein 3/Mucosa-associated lymphoid tissue lymphoma translocation protein 1, sequence (Q13489 whole entry, one chain of several, the tested form may be a part): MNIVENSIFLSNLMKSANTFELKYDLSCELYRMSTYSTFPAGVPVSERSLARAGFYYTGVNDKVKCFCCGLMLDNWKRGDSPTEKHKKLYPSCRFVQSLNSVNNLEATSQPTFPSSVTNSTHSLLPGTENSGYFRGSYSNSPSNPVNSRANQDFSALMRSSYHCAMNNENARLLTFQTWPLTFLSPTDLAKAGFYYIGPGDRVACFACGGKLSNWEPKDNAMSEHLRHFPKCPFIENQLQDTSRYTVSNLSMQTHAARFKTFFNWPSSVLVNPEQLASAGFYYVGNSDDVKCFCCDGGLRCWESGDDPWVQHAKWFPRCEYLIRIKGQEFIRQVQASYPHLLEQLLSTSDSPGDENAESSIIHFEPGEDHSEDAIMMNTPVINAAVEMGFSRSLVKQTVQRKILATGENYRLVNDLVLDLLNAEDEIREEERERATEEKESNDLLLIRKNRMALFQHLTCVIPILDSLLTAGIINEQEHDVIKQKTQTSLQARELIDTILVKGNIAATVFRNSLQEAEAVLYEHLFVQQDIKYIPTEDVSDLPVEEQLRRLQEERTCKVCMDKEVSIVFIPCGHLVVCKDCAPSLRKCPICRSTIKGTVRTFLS
# [22] = Dose normalized Cmax in Balb/c mouse at 3 mg/kg, po administered as cassette dosing; format: ADME, organism-based; settings: in vivo
# [23] = Thermodynamic solubility of the compound at pH 6.8; format: physicochemical; settings: buffer, read-out: Therm_solubility
# OCI-Ly3 [24] = experiment: Antiproliferative activity against human OCI-LY3 cells assessed as assessed as reduction in colony formation incubated for 14 days by soft-agar assay; format: functional, cell-based; settings: dose 19.5-10000 nM, time 14.0 day
# BJAB [25] = experiment: Antiproliferation activity against human BJAB cells assessed as reduction in cell viability incubated for 14 days by resazurin dye-based fluorescence analysis; format: functional; settings: 336 h
# [26] = Inhibition of mixed lymphocyte reaction in rat PBMC cells assessed as reduction in [3H]-thymidine incorporation measured after 5 days in presence of Il-7 by microbeta counting method; format: cell-based
# Mus musculus [27] = experiment: Immunomodulatory activity in human TMD8 cells xenografted SCID mouse assessed as increase in levels of uncleaved BCL10 in tumor at 100 mg/kg, po; format: functional, organism-based
# [28] = Volume of distribution at steady state in Balb/c mouse at 1 mg/kg, iv administered as cassette dosing; format: ADME, organism-based; settings: in vivo, read-out: Vdss
# [29] = Toxicity in Balb/c mouse assessed as behavioral changes at 10 to 100 mg/kg, po BID administered at 12 hrs interval immunized post 1 hr first treatment; format: organism-based; settings: in vivo, dose 10-100 mg/kg
smiles,measurement,setting,value
C[C@H]1COC[C@H](C)N1c1c(NC(=O)Nc2ccnc(C(F)(F)F)c2)cnc2cc(Cl)nn12,IC50,[1],9 nM
same,bioavailability,[2],99%
same,IC50,[3],160 nM
same,IC50,[4],190 nM
same,bioavailability,[5],61%
same,IC50,OCI-Ly3 [6],> 10000 nM
same,Activity,Mus musculus [7],Dose-dependent effect
same,fraction unbound,[8],0.011
same,Activity,[9],Non-Toxic
same,Papp A→B,[10],1.47 ×10⁻⁶ cm/s
same,Activity,BJAB [11],inactive
same,log(permeability),[12],-4.2
same,solubility,[13],266 µM
same,microsomal CLint,[14],82 µL/min/mg
same,Activity,Mus musculus [15],25%
same,Tmax,[16],2 h
same,Activity,Mus musculus [17],Active
same,inhibition,[18],Dose-dependent effect
same,fraction unbound,[19],0.013
same,clearance,[20],11 mL/min/kg
same,Activity,TMD8,Active
same,IC50,[21],140 nM
same,Cmax/dose,[22],549 nM
same,solubility thermodynamic,[23],4 µg/mL
same,Activity,OCI-Ly3 [24],Dose-dependent effect
same,IC50,BJAB [25],2000 nM
same,IC50,[26],600 nM
same,Activity,Mus musculus [27],Active
same,Vd,[28],1.5 L/kg
same,Activity,[29],Non-Toxic
